Where no end group is shown, it is not given here.
Target: T1, HLA-A*11:01 protein (Homo sapiens, UniProt P04439, A114D/D185E/E176A/F33Y/L180Q/S129P/T187R)
T1 construct: biotin (biotinylated)
Assay: Bio-Layer Interferometry (BLI) affinity test, Octet R8
Settings: Octet R8, SSA sensors, peptides 100-3.125 µM in PBST (PBS+0.02%Tween20+1% DMSO), balance, binding, dissociation 60 s each

Sequence | Kd | KD
FSTFKCYGV [reference compound] | 29.1 µM | 
SQCVNLTTR [reference compound] |  | Non-binding
GVSPTKLNDL [reference compound] | 656 µM | 
KCYGVSPTK [reference compound] | 23.5 µM | 

From PMC9006954, “Computer-Based Immunoinformatic Analysis to Predict Candidate T-Cell Epitopes for SARS-CoV-2 Vaccine Design” (Frontiers in Immunology, 2022)
